Converted amounts (≈) assume the structure as drawn. Read-outs that look alike come from different tables or passages of the source.
Assays:
Lichtheimia corymbifera [1] = experiment: EUCAST MICs of AmB, ISA, AmB-loaded LNPs and AmB-ISA-loaded LNPs; format: cell-based; details: 24 h at 37° C.
Procedure: (§1) Briefly, a mass (80-120 mg) of an oil phase consisting of triglycerides (Labrafac®, or tributyrin in different mass ratios, i.e. 100% Labrafac® to 100% tributyrin) was supplemented with AmB (0,025 to 0.2 mg) and ISA (0.25 to 5 mg) and then mixed with 80 to 120 mg of PEG15HS (Solutol HS15®) and 500 to 800 μl of water to form an oil-in-water emulsion. This emulsion was then heated to 85° C., to obtain a water-in-oil emulsion, and then cooled to 40° C. Three such temperature cycles were performed and the system was then fast cooled to 4° C. The formulated nanoparticles were then characterized by size distribution and mean zeta potential measurements. Examples of formulations of LNPs loaded with AmB and AmB-ISA are detailed in Table 5:
(§2) Rhizopus arrhizus 1, Lichtheimia corymbifera and Lichtheimia ramosa strains were used. These correspond to the most frequently encountered species in human mucormycosis. These three strains were isolated from patients suffering from pulmonary mucormycosis.
(§3) MICs of AmB in solution, ISA in solution, AmB-loaded LNPs, and AmB-ISA-loaded LNPs were evaluated according to the European Committee on Antimicrobial Susceptibility Testing (EUCAST) guidelines. Briefly, MICs were determined by adding 100 μL of two-fold dilutions of AmB in solution, ISA in solution, AmB-LNPs or AmB-ISA-LNPs (0.008 to 4 mg/L) in 96-well plates. One hundred microliters of a spore suspension at a concentration of 105 spores/mL were added to the wells, and the plates were incubated for 24 h (Mucorales) or 48 h (A. fumigatus) at 37° C. […] Three experiments were performed for each strain.

Rhizopus arrhizus 1 = experiment: as above; format: cell-based; details: 24 h at 37° C.
Procedure: as §1, §2, §3

Lichtheimia ramosa [2] = experiment: as above; format: cell-based; details: 24 h at 37° C.
Procedure: as §1, §2, §3

Lichtheimia ramosa [3] = experiment: MIC of AmB in solution with blank lipid nanoparticles (BLNPs), EUCAST broth microdilution; format: cell-based; details: AmB in solution in RPMI, without PEG15HS LNPs
Procedure: MICs for each fungi were measured in the presence of different concentrations of AmB (solubilized in the LNP suspensions or loaded in the LNP) as described by the EUCAST broth microdilution antifungal susceptibility test methodology (EUCAST DEFINITIVE DOCUMENT E.Def 9.3.2 Apr. 2020. EUCAST antifungal MIC method for mould).
A clinical isolate of Lichtheimia ramosa was used. Isolate were subcultured from frozen stocks (−80° C.) on 75 cm^3 flasks containing 15 ml of Sabouraud dextrose agar (Sigma-Aldrich, St. Quentin Fallavier, France) during 3 days at 37° C. Spores were collected by flooding the flask with 10 mL of sterile water. The suspensions were filtered on nylon filter (Millipore, Carrigtwohill, Ireland) with pore size of 11 μm to remove hyphal elements. The concentration of the spore suspensions was then adjusted in sterile water to obtain inocula of 2×10^5 spores/mL.
The MIC of the formulations for Lichtheimia ramosa was assayed.

Rhizopus arrhizus = experiment: Checkerboard AmB MIC with surfactant in solution, inhibitory Emax model; format: cell-based
Procedure: (§4) Twelve clinical isolates of Mucorales identified by ARNr sequencing were used: Rhizopus arrhizus (5), Rhizopus microsporus (1), Lichtheimia corymbifera (3), Lichtheimia ramosa (1), Mucor circinelloides (1), Rhizomucor pusillus (1). Isolates were subcultured from frozen stocks (−80° C.) on 75 cm^3 flasks containing 15 mL of Sabouraud dextrose agar (Sigma-Aldrich, St. Quentin Fallavier, France) during 3 days at 37° C. Spores were collected by flooding the flask with 10 ml of sterile water. The suspensions were filtered on nylon filter (Millipore, Carrigtwohill, Ireland) with pore size of 11 μm to remove hyphal elements. The concentration of the spore suspensions was then adjusted in sterile water to obtain inocula of 2×10^5 spores/mL.
(§5) AmB powder (Sigma-Aldrich) was dissolved in dimethyl sulfoxide to get a stock solution at 8192 mg/L stored at −80° C. for six months. On the day of use, AmB and freshly made surfactant solutions (in RPMI or PBS) were diluted in the same medium (RPMI or PBS) to obtain desired concentrations. Surfactants used (polyethylene glycol (15)-hydroxystearate (also named Solutol® HS15 or Kolliphor® HS 15, or Macrogol 15 Hydroxystearate); polyoxyethylene (10) stearyl ether (Brij® S10); polyoxyethylene (20) stearyl ether (Brij® S20); polyoxyethylene (20) oleyl ether (Brij® 020); and polyoxyethylene (10) cetyl ether (Brij® C10)), which have their chemical structure presented in FIG. 7, were purchased from Sigma-Aldrich.
(§6) AmB minimum inhibitory concentrations (MIC) of each strain of Mucorales was measured in RPMI the presence of different concentrations of surfactant as described by the EUCAST broth microdilution antifungal susceptibility test methodology with modification for the checkerboard procedure. Checkerboards were performed by adding 100 μL of two-fold dilutions of AmB (0.008 to 4 mg/L) and surfactant solutions (0.04 to 2752 mg/L) in 96 well plates. One hundred microliters of a spore suspension at a concentration of 105 spores/mL were added to the wells, and the plates were incubated for 24 h at 37° C. […] Three experiments were performed for each strain.
(§7) An inhibitory Emax model (Equation 1) developed by Chauzy et al. (Chauzy, A.; Buyck, J.; de Jonge, B. L. M.; Marchand, S.; Grégoire, N.; Couet, W. Pharmacodynamic Modelling of β-Lactam/β-Lactamase Inhibitor Checkerboard Data: Illustration with Aztreonam-Avibactam. Clin. Microbiol. Infect. 2019, 25, 515.e1-515.e4, doi: 10.1016/j.cmi.2018.11.025) to evaluate the enhancing effect of non-antibiotics molecules on the efficacy of antibiotic against bacteria was used here to describe the average decrease in AmB MIC values (MICsurf) against various Mucorales strains in relation to surfactant concentrations (Csurf).
(§8) In equation 1, MIC0 refers to the AmB MIC measured without surfactants and MIC∞ is the lowest AmB MIC measured in the presence of surfactant. The maximal ratio in AmB MIC decrease defined as maximal efficacy (Emax) was calculated as the ratio of MIC0/MIC∞. EC50 is the concentration of surfactant producing 50% of the Emax and characterizes the potency of the surfactants. These parameters were evaluated using WinNonlin software (version 6.2, Certara, NJ, USA) as described by Chauzy et al.

Lichtheimia corymbifera [4] = experiment: as above; format: cell-based
Procedure: as §4, §5, §6, §7, §8

Rhizomucor pusillus = experiment: as above; format: cell-based; details: R. pusillus
Procedure: as §4, §5, §6, §7, §8

Lichtheimia ramosa [5] = experiment: as above; format: cell-based; details: L. ramosa
Procedure: as §4, §5, §6, §7, §8

Mucor circinelloides = experiment: as above; format: cell-based; details: M. circinelloides
Procedure: as §4, §5, §6, §7, §8

Rhizopus microsporus = experiment: as above; format: cell-based; details: R. microsporus
Procedure: as §4, §5, §6, §7, §8

Procedure for human erythrocytes: Human blood samples from different healthy volunteers was collected in EDTA tubes and centrifuged at 3000×g for 5 minutes. Plasma was removed and the erythrocytes were washed four times with 2 ml of 0.9% NaCl by centrifugation at 3000×g for 5 minutes.
Erythrocytes were suspended in PBS pH 7.4 and their concentration was adjusted to 5·10^8 cells/mL. Erythrocytes were then incubated with AmB solubilised as a solution or loaded in LNP for 1 hour at 37° C. under shaking, then centrifuged at 3000×g for 5 minutes. Then, 100 μL of the supernatant were transferred in a flat-bottomed transparent 96-well plate and the absorbance was measured at 540 nm. Untreated erythrocytes dispersed in PBS were used as a negative control, and erythrocytes treated by 1% (v/v) of TritonX-100 were used as a positive control. Percentage of hemolysis was calculated using the following equation: 100*(Asample−Acontrol)/(aTritonX−100−Anegative), where Asample is the absorbance measured for each experimental conditions, Anegative and aTritonX-100 are the absorbance of negative and positive controls, respectively.
Sterile Dulbelcc”s phosphate buffered saline (DDPBS, Dominique Dutscher, Bernolsheim, France) pH 7 was also used as a medium to measure the hemolytic activity of AmB.

C[C@@H]1[C@H](O)[C@@H](C)/C=C/C=C/C=C/C=C/C=C/C=C/C=C/[C@H](O[C@@H]2O[C@H](C)[C@@H](O)[C@H](N)[C@@H]2O)C[C@@H]2O[C@](O)(C[C@@H](O)C[C@@H](O)[C@H](O)CC[C@@H](O)C[C@@H](O)CC(=O)O[C@H]1C)C[C@H](O)[C@H]2C(=O)O [AmB, amphotericin B]
MIC (AmB) (Lichtheimia corymbifera [1]): 1 µg/mL (≈ 1.08 µM) | MIC (AmB) (Rhizopus arrhizus 1): 1 µg/mL (≈ 1.08 µM) | MIC (AmB) (Lichtheimia ramosa [2]): 1 µg/mL (≈ 1.08 µM) | MIC of AmB (Lichtheimia ramosa [3]): 0.5 µg/mL | hemolysis (human erythrocytes; in PBS, 5 to 15 mg/L of AmB): induce hemolysis | hemolysis (human erythrocytes; in RPMI, AmB 15, 30 mg/L): induce hemolysis | MIC0 (MIC of AmB in the absence of surfactant) (Rhizopus arrhizus; R. arrhizus 1): 0.28 µg/mL | MIC0 (MIC of AmB in the absence of surfactant) (Rhizopus arrhizus; R. arrhizus 2): 0.44 µg/mL | MIC0 (MIC of AmB in the absence of surfactant) (Rhizopus arrhizus; R. arrhizus 3): 0.59 µg/mL | MIC0 (MIC of AmB in the absence of surfactant) (Rhizopus arrhizus; R. arrhizus 4): 0.61 µg/mL | MIC0 (MIC of AmB in the absence of surfactant) (Rhizopus arrhizus; R. arrhizus 5): 0.35 µg/mL | MIC0 (MIC of AmB in the absence of surfactant) (Lichtheimia corymbifera [4]; L. corymbifera 1): 0.36 µg/mL | MIC0 (MIC of AmB in the absence of surfactant) (Lichtheimia corymbifera [4]; L. corymbifera 2): 0.06 µg/mL | MIC0 (MIC of AmB in the absence of surfactant) (Lichtheimia corymbifera [4]; L. corymbifera 3): 0.25 µg/mL | MIC0 (MIC of AmB in the absence of surfactant) (Rhizomucor pusillus): 0.25 µg/mL | MIC0 (MIC of AmB in the absence of surfactant) (Lichtheimia ramosa [5]): 0.51 µg/mL | MIC0 (MIC of AmB in the absence of surfactant) (Mucor circinelloides): 0.19 µg/mL | MIC0 (MIC of AmB in the absence of surfactant) (Rhizopus microsporus): 0.68 µg/mL

Source: patent US20250221930A1, “A COMPOSITION COMPRISING LIPID NANOPARTICLES AND AN ANTIFUNGAL POLYENE” (INSTITUT NATIONAL DE LA SANTÉ ET DE LA RECHERCHE MÉDICALE, priority 2022, published 2025)
